This passage reports IC50 results from ChEMBL document CHEMBL1201862, “PubChem BioAssay data set” (2004).

The IC50 is the concentration at which inhibition is half-maximal.

The assay concerns the target Envelope glycoprotein gp160 (Human immunodeficiency virus 1, UniProt Q6QLK5). The assay can be described thus: cell-free HIV fusion peptide-binding blockers – biochemical, uHTS, fluorescence dequenching, […] (AID 1986).

The source made the active and inactive calls. Rule as the data show it: actives have a measured IC50 and inactives only a lower limit.

Sequence of Envelope glycoprotein gp160 (Q6QLK5 whole entry, the tested form may be a part): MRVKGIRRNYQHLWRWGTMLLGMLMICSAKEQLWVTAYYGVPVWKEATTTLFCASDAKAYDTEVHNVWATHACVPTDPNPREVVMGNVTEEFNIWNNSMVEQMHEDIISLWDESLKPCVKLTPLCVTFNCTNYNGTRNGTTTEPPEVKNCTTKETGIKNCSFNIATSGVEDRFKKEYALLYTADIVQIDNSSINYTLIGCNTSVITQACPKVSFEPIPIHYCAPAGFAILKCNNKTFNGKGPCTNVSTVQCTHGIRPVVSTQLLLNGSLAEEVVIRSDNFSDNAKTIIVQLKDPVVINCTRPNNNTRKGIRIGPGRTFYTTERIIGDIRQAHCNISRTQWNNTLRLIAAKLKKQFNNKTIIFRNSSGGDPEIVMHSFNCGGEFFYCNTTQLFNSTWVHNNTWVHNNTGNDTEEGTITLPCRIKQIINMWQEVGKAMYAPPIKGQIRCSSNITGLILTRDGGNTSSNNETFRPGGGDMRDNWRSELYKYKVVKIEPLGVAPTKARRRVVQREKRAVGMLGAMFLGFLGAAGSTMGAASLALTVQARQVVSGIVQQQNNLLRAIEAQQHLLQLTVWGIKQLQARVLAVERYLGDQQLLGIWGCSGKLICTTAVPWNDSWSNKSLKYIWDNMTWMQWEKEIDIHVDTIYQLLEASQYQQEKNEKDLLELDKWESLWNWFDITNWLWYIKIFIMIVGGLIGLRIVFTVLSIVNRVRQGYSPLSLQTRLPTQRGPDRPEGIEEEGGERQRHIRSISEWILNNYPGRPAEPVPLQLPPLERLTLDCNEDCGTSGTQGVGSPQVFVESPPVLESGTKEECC

`COc1cc(/C=C2/C(=N)N3C(=NC2=O)SN=C3S(C)(=O)=O)ccc1OS(=O)(=O)c1ccccc1`: the IC50 is 19.8 µM (active).
